Test system: Mice that over-expressed human Cu,Zn superoxide dismutase-1 mutant G93A
Assay: Survival of ALS model mice treated by oral gavage
Type: in vivo
Details: G93A SOD1 mice; single-agent control treatment; untreated mice 125 days
Experimental: Compound 1 was dissolved in a PEG solvent (30% PEG 400, 5% EtOH, 5% DMSO, 1 mg/ml). The solution was mixed with Coenzyme Q10 in liposome (5 mg/ml, NuNaturals).
Mice that over-expressed human Cu,Zn superoxide dismutase-1 mutant G93A to develop a delayed and progressive motor neuron disease similar to human amyotrophic lateral sclerosis (ALS) were used in this assay.
The mixture of Compound 1 and Coenzyme Q10 were administered by gavage (oral) once a day (final dosage: 10 mg/kg of Compound 1 and 50 mg/kg of Coenzyme Q10) to 5 mice. The average survival time for the mice was 156 days.
As control, mice were subject to Compound 1 treatment, Coenzyme Q10 treatment, or no Compound 1 or Coenzyme Q10 treatment. The average survival time was 138 days for Compound 1-treated mice, 129 days for Coenzyme Q10 treatment mice, and 125 days for no Compound 1 or Coenzyme Q10-treated mice.

Row | SMILES | average survival time
1 | COC1=C(OC)C(=O)C(C/C=C(\C)CC/C=C(\C)CC/C=C(\C)CC/C=C(\C)CC/C=C(\C)CC/C=C(\C)CC/C=C(\C)CC/C=C(\C)CC/C=C(\C)CCC=C(C)C)=C(C)C1=O [Coenzyme Q10] | 129 days
2 | O=C(/C=C/c1ccc(O)c(O)c1)OCCc1ccccc1 [Compound 1, caffeic acid phenethyl ester] | 138 days

Reference: US9040579B2, “Combination therapy using coenzyme Q10 and a caffeic acid-derived ester” (priority 2010, dated 2015)
